This note sets out measurements from ChEMBL document CHEMBL1201862, “PubChem BioAssay data set” (2004).

Assay [1] addresses T1, Rac GTPase-activating protein 1 (Homo sapiens, UniProt Q9H0H5).
T1 sequence (Q9H0H5 whole entry): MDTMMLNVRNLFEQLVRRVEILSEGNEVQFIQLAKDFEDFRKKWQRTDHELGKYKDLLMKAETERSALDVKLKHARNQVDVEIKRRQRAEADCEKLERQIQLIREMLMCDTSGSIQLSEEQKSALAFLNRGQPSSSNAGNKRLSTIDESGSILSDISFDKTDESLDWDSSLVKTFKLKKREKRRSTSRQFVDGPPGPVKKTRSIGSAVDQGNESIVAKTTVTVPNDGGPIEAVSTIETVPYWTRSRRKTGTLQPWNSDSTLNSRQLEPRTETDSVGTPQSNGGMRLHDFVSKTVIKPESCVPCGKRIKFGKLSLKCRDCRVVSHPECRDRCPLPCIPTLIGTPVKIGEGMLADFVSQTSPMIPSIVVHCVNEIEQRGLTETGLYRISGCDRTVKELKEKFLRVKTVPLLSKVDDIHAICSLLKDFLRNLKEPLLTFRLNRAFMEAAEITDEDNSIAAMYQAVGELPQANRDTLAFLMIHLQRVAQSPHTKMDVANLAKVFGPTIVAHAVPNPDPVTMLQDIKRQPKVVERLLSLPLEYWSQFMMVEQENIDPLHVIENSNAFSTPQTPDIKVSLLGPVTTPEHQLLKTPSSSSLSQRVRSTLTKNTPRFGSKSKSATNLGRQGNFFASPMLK
The experiment in a line: MgcRacGAP GTPase-activating activity inhibitors, confirmation, biochemical, ADP Hunter fluorescence, primary and confirmatory (AID 624330). The class given is functional.

Assay [2] deals with T2, High affinity choline transporter 1 (Homo sapiens, UniProt Q9GZV3).
T2 sequence (Q9GZV3 whole entry): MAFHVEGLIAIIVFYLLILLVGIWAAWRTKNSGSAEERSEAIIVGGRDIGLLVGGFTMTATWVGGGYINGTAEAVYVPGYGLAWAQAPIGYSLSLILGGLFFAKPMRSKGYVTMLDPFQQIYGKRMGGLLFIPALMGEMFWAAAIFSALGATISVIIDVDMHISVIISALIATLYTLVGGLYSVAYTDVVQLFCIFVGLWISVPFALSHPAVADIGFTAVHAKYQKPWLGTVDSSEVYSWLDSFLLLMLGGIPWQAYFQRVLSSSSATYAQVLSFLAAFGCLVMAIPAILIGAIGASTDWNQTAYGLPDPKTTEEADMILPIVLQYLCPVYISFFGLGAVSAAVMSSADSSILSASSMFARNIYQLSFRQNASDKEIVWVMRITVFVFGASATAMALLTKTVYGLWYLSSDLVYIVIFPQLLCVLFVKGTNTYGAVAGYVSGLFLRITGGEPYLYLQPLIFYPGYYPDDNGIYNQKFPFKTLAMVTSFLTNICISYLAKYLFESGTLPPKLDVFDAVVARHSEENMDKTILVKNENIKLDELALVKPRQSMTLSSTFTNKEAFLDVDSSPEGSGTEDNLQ
The experiment in a line: CHT inhibitors, dose response, cell-based, 5-point CRC, membrane potential dye (AID 504840). The assay is classed as functional.

The next assay concerns the target T3, Protein RecA (Mycobacterium tuberculosis, UniProt P9WHJ3).
T3 sequence (P9WHJ3 whole entry): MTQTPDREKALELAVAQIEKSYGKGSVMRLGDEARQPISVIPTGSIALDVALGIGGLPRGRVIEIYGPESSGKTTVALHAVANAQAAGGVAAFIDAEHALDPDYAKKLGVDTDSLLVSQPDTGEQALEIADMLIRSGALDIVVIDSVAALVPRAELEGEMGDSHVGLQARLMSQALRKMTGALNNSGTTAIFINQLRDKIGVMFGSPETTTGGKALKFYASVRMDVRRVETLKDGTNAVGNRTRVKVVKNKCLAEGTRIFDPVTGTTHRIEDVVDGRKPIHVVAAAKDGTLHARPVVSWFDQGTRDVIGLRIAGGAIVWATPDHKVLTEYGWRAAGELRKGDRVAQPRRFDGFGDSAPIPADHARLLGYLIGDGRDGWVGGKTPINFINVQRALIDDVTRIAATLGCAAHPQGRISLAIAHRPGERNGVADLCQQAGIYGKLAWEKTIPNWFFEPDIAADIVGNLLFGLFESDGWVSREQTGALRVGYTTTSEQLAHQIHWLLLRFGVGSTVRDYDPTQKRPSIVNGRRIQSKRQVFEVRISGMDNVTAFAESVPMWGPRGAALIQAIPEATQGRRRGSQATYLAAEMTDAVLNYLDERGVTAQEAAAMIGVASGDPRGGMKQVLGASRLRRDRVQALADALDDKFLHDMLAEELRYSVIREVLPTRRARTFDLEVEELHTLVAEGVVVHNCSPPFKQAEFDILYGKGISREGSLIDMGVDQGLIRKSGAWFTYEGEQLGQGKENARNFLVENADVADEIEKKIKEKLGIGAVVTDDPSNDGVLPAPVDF
The experiment in a line: Fluorescence Cell-Free Homogeneous Dose Retest to Identify Inhibitors of RecA-Intein Splicing Activity. [Related pubchem assays (depositor defined):AID2097, AID2223, AID489010, AID492950]. The assay is classed as functional.

Assay [3] addresses T4, Replicative DNA helicase DnaB (Mycobacterium tuberculosis, UniProt P9WMR3).
T4 sequence (P9WMR3 whole entry): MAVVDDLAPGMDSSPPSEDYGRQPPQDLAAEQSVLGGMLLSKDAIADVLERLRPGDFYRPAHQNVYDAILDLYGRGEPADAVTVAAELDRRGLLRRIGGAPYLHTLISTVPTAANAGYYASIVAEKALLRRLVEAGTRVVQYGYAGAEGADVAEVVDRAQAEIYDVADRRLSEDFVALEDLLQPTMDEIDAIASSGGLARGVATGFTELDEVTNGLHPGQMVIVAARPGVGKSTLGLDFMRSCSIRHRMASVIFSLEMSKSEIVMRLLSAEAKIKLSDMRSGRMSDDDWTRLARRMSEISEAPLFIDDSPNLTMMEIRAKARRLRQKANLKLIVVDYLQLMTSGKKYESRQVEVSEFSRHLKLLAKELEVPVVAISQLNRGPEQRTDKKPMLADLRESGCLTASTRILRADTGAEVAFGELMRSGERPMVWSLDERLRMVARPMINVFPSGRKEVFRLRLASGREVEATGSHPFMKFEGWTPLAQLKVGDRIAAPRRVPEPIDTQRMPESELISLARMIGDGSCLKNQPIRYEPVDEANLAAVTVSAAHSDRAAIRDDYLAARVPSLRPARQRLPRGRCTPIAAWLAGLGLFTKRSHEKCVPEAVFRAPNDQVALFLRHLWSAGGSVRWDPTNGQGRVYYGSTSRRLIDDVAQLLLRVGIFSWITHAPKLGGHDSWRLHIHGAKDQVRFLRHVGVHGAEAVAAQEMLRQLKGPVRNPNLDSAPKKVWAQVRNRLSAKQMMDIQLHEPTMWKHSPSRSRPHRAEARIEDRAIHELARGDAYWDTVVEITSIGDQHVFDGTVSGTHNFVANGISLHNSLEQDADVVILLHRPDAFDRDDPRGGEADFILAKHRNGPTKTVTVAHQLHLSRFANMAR
The experiment in a line: DnaB intein splicing inhibitors, dose response, biochemical, cell-free fluorescence (AID 449749). The class given is functional.

The nature of assay [4]: HEp-2 cell cytotoxicity, dose response, cytotoxicity control for RSV inhibitor project, HTS (AID 2410). The class given is functional. Conditions: human respiratory syncytial virus.
The target of assay [5] is T5, Heat shock factor protein 1 (Mus musculus, UniProt P38532).
T5 sequence (P38532 whole entry): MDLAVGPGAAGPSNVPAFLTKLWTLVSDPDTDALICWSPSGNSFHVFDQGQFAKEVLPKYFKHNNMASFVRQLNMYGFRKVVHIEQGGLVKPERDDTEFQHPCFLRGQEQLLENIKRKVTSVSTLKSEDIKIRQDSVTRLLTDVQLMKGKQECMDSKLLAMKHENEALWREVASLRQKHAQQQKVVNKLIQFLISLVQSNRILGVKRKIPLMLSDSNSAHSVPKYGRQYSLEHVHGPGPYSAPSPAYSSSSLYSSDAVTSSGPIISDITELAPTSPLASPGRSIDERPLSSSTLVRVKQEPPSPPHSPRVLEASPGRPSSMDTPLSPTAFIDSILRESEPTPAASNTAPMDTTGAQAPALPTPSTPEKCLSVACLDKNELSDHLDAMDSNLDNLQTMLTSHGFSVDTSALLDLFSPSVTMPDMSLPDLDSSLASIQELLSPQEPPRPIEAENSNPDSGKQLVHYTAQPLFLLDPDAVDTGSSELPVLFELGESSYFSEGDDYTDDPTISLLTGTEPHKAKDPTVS
As to the kind of experiment: HSF1 potentiators in luciferase reporter cells, confirmation, cell-based, NIH3T3, luminescence, dose retest (AID 435004).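 Note: stress induced by proteasome inhibitor MG132 added 30 min after compound; luciferase reporter driven by HSF1 response element in NIH3T3 cells; actives raise luminescence as potentiators of the MG132 stress response.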 The class given is functional.

Assay [6] has as its target Luciferin 4-monooxygenase (Photinus pyralis, UniProt P08659). As to the kind of experiment: firefly luciferase enzyme inhibitors, dose response, biochemical, luminescence (AID 1891).
Assay [7] can be described thus: Luminescence Cell-Based Dose Confirmation HTS to Identify Inhibitors of Platelet Dense Granule Release. [Related pubchem assays: 1663 (Primary HTS), 1678 (Summary of Project)]. The class given is functional.
The target of a further assay is Cytochrome P450 2C19 (Homo sapiens, UniProt P33261). As to the kind of experiment: Cytochrome panel assay with activity outcomes. Panel member name: p450-cyp2c19 Compounds with AC50 equal or less than 10 uM are considered active. The assay is classed as functional. The conditions noted are these: read-out: AC50.
The target in a further assay is Cytochrome P450 3A4 (Homo sapiens, UniProt P08684).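 Note: CYP3A4 tested as one member of a cytochrome P450 panel screen.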

Calls of active or inactive are those of the source.

Luciferin 4-monooxygenase, sequence (P08659 whole entry): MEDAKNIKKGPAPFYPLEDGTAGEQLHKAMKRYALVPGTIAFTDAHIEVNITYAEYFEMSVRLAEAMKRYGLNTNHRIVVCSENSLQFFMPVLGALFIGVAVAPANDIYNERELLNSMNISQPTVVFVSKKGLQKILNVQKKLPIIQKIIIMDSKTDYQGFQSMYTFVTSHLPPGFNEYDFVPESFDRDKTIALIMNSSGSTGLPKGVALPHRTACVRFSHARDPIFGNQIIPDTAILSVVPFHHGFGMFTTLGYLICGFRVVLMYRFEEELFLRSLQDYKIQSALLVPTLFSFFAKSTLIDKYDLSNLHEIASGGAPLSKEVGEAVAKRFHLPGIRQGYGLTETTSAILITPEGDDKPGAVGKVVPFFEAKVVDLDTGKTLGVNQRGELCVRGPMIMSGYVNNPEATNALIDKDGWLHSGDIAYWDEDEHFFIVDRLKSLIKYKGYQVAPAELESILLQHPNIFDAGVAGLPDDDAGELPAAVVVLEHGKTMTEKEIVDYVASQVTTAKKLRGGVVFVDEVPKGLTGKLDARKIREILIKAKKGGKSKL
Cytochrome P450 3A4, sequence (P08684 whole entry): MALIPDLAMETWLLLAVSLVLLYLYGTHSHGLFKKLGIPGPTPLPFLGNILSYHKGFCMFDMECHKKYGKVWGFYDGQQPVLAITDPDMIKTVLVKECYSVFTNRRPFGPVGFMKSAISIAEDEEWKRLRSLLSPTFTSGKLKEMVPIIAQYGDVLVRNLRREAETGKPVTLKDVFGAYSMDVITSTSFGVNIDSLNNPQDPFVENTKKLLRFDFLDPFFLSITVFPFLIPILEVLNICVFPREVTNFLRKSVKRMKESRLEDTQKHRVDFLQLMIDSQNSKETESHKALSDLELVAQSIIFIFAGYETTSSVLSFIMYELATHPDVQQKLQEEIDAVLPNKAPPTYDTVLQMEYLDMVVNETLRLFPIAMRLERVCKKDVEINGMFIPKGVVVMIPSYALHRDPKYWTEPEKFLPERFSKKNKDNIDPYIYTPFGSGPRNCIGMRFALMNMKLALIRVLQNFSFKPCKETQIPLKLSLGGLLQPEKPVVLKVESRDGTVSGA
Cytochrome P450 2C19, sequence (P33261 whole entry): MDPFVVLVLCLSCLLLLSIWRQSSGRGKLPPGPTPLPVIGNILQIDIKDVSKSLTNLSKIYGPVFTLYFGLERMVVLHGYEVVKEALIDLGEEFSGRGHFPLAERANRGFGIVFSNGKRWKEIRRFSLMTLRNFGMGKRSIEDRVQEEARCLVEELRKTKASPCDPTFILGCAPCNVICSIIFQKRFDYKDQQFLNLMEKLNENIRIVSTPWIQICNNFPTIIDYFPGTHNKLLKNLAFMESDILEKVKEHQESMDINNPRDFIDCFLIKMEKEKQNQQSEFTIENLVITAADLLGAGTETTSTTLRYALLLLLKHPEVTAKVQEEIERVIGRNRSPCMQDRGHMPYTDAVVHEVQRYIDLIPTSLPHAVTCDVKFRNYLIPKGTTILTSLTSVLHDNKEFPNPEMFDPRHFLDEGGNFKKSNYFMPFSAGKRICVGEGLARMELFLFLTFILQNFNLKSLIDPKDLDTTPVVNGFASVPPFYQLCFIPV

On to `COc1cc(/C=N/NC(=O)c2cn(-c3cccc(C)n3)cn2)ccc1O`, for which, in assay [1], the IC50 (commonly the concentration that gives 50% inhibition) is 36.1 µM (active).

Turning to `CC1CCN(CCNC(=O)C2CCCN(c3ncnc4c3nc3n4CCCCC3)C2)CC1` (stereo not given), the IC50 in assay [2] is 13.2 µM (active).

For the compound `CC(Oc1ccccc1Cl)C(=O)Nc1ccc(S(=O)(=O)Nc2nccs2)cc1` (stereo not given), in assay [2], the IC50 is 5.01 µM (active).

On to `CNc1oc(Cc2cccc3ccccc23)nc1C#N`, for which the IC50 in [2] is 12.6 µM (active). As to `COc1ccccc1N1CCN(/N=C/c2ccc(O)cc2O)CC1`, in assay [1], the IC50 is 48 µM (active).

Turning to `CCOc1ccccc1/C=C/C(=O)NCC(=O)N1CCC(N(C)C2CCCCC2C)CC1` (stereo not given), the IC50 in assay [2] is 14.8 µM (active). Same read-out and setting: the same measure for `O=C(NCCCn1ccnc1)/C(=C\c1ccc(Br)cc1)NC(=O)c1ccccc1`: 15.1 µM (active); for `COc1ccc(C(CNC(=O)c2cc(S(=O)(=O)NCc3ccccc3)ccc2C)N2CCOCC2)cc1` (stereo not given): 11 µM (active). `O=C(Cc1ccc(Cl)cc1)N/N=C/c1ccc(O)c(O)c1`: the IC50 in [1] is 19.7 µM (active). For `N#C/C(=C\c1cc(Cl)c(OCc2ccc(Cl)cc2)c(Cl)c1)C(N)=O`, the EC50 (commonly the concentration needed to bring the measured effect to its halfway point) on Protein RecA is > 380 µM (inconclusive). Further, the AC50 (usually the concentration giving half of the maximal activity seen) in assay [3] was > 380 µM (inactive). Besides, the CC50 (as a rule, the concentration at which the toxic effect on the cells reaches its halfway point) in [4] was 36.8 µM (active).

Consider `Nc1cc2c(cc1N)-c1ccccc1C2`, for which the IC50 in assay [1] is 23 µM (active). As for `Cc1cc(C(=O)CSc2n[nH]c(N)n2)c(C)n1-c1cc(F)ccc1F`, in assay [2], the IC50 was 11.2 µM (active). On to `Cc1cc(C)c(C)c(S(=O)(=O)Nc2ccc(O)cc2)c1C`, for which the half-inhibitory concentration (IC50) in [1] is 45.7 µM (active).

On to `CC(CCn1cccn1)NC(=O)CCc1nnc(CCc2ccccc2)o1` (stereo not given), for which the EC50 at Protein RecA was > 380 µM (inactive). Besides, in [3], the AC50 was > 380 µM (inactive). As for `COCCCNC(=O)c1ccc(OC)c(OC2CCN(C(C)C)CC2)c1`, the IC50 in assay [2] was 2.51 µM (active). With `C[N+](C)(C)CC=O` [BETAINE ALDEHYDE CHLORIDE], in assay [2], the half-inhibitory concentration (IC50) was 15.1 µM (active).

In the case of `Cc1ccc(S(=O)(=O)N2CCCCC2)cc1NC(=O)CNCc1ccco1`, the IC50 in assay [1] was 198 µM (active). As for `Cc1c(Cl)cccc1N=C([S-])/C(=C(\O)c1ccc(Cl)s1)[n+]1ccccc1`, the EC50 on Protein RecA was 12.9 µM (active). For the same compound, the AC50 in assay [3] is 19.8 µM (active). Turning to `Cc1ccc(-c2[nH]c3ccccc3c2C(C[N+](=O)[O-])c2ccco2)cc1` (stereo not given), the EC50 in assay [5] was > 260 µM (inactive); in assay [6] it was > 112 µM (not active); in assay [7] it was > 112 µM (not active). As for `COc1ccc(N2C(=O)/C(=C\c3ccco3)N=C2SCC(=O)NC(C)(C)C)cc1Cl`, the EC50 at Protein RecA is 20.7 µM (inconclusive). Also, in assay [3], the AC50 was > 380 µM (inactive).

As to `CCCCCn1c(CN2CCCCC2C)nc2c1c(=O)n(C)c(=O)n2C` (stereo not given), the figures for the AC50 on Cytochrome P450 2C19 and on Cytochrome P450 3A4 were 20 µM (inconclusive) and 5.01 µM (inconclusive), respectively. For the same compound, in assay [2], the IC50 was 13.2 µM (active).

`CCn1cnc2cc(NCc3ccc(OC)cc3)ccc21`: the IC50 in assay [1] is 92.1 µM (active). Take `COCc1n[nH]c2c1C(c1ccc(OC)cc1)C(C#N)=C(N)O2` (stereo not given): the EC50 at Protein RecA is 6.79 µM (active). For the same compound, the AC50 in assay [3] is 25.8 µM (active).

On to `CN(C)c1nc(OCCNC(=O)Nc2ccc(Cl)cc2)nc(N(C)C)n1`, for which the EC50 was 21.3 µM (active) in assay [6] and > 112 µM (not active) in assay [7]. On to `CC(Oc1cccc(Cl)c1)C(=O)Nc1ccccc1N1CCCC1` (stereo not given), for which the EC50 in assay [6] and in [7] was > 112 µM (not active) in each case.

Turning to `CCCNc1nc2c(c(=O)n(C)c(=O)n2C)n1CCC(C)C`, in [2], the IC50 is 6.03 µM (active). Consider `COc1ccc(NC(=O)c2cccc(OC(F)F)c2)cc1Cl`, for which the EC50 was 17.3 µM (active) in assay [6] and 18.2 µM (active) in assay [7].
